From patent US20230127965A1, “METHODS FOR TREATING, AMELIORATING, OR PREVENTING VIRAL INFECTIONS” (Thomas Jefferson University, priority 2020, published 2023)
“Also recorded” adds a separate entry of the source.

What was measured:
Type in all cases: cell-based
SARS-CoV-2 = tested on: SARS-CoV-2
Zika virus = Zika virus infection of U2OS cells, qPCR; conditions: 10 μM, treated 2 hours before infection, MOI of 1, ~16-18 hours (FIG. 7)
androgen receptor (AR) = tested on: androgen receptor (AR)
Powassan virus = tested on: Powassan virus
Dengue virus = Dengue virus infection of U2OS cells, qPCR; conditions: 10 μM, treated 2 hours before infection, MOI of 1, ~16-18 hours (FIG. 6)

Row | Structure (SMILES) | effect on SARS-CoV-2 infection (in words) (SARS-CoV-2) | Zika virus infection (fold change, qPCR) (Zika virus) | DHT induced AR transcriptional activity (androgen receptor (AR)) | blocked SARS-CoV-2 infection (fold) (SARS-CoV-2) | Powassan virus infection (fold change, qPCR) (Powassan virus) | Dengue virus infection (fold change, qPCR) (Dengue virus)
1 | O=C(CCCN1CCC(O)(c2ccc(Cl)cc2)CC1)c1ccc(F)cc1 [Haloperidol, 4-[4-(4-chlorophenyl)-4-hydroxypiperidin-1-yl]-1-(4-fluorophenyl)butan-1-one] | clear but modest antiviral effect | – | – | – | – | –
2 | N=C(NCCCOc1ccc(F)cc1)Nc1ccc(Cl)cc1 [CT189] | inhibit SARS-CoV-2 infection | inhibit | inhibition | 1,000 fold | inhibit | inhibit
3 | COc1ccc(CCN2CCN(CCCc3ccccc3)CC2)cc1OC [SA4503, 1-(3,4-dimethoxyphenethyl)-4-(3-phenylpropyl) piperazine] | did not block infection | – | – | – | – | –
4 | O=C(OCCN1CCOCC1)C1(c2ccccc2)CCCCC1 [PRE084, 2-morpholin-4-ylethyl 1-phenylcyclohexane-1-carboxylate] | did not block infection | – | – | – | – | –
5 | Cc1cc(OCCN2CCOCC2)nn1-c1ccc2ccccc2c1 [Compound S1RA, 4-[2-[[5-methyl-1-(2-naphthalenyl)-1H-pyrazol-3-yl]oxy]ethyl]morpholine] | did not block infection; also recorded: does not block infection | – | – | – | – | –
6 | N=C(Nc1ccc(I)cc1)NC1C2CC3CC(C2)CC1C3 (stereo not shown) [IPAG] | inhibit SARS-CoV-2 infection | – | inhibition | 1,000 fold | – | –
